Results on 24 compounds are retold here after PubChem BioAssay (NCI).

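Interpolation was linear, between the two tested concentrations surrounding the appropriate level; five concentrations were tested over 48 hours in 96-well plates. GI50 marks 50% less growth. TGI marks complete inhibition of growth.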 Where a SMILES comes first, the peptide text is derived from it. [ ]: non-standard residue; d: D form. 2Nal = N[CH](Cc1ccc2ccccc2c1)C(=O)O Where only a bound is given, the exact number is not on record here.

Some test systems named below: DMS 114 small cell lung; DMS 273 small cell lung; HOP-18 NSCLC; KM20L2 colon; M19-MEL melanoma; LXFL 529 NSCLC; MDA-N; P388 leukemia; P388/ADR leukemia; SN12K1 renal.
What all share (test): NCI tumour cell line growth inhibition, 48 h

Regarding `CC(NC(=O)C(N)Cc1ccccc1)C(=O)NC(Cc1ccc(O)cc1)C(=O)NC(Cc1c[nH]c2ccccc12)C(=O)NC(CCCCN)C(=O)NC(C(=O)NC(C)C(=O)NC(Cc1ccc2ccccc2c1)C(N)=O)C(C)C` (stereo unspecified) (H-FAYWKVA[2Nal]-NH2; configuration not given here), the TGI is 92.6 µM in the test with DMS 114 small cell lung; 54.1 µM in the test with DMS 273 small cell lung; 46.3 µM in the test with HOP-18 NSCLC; 78 µM with KM20L2 colon; 74 µM with M19-MEL melanoma.

In the case of `O=C(O)C1Cc2nc[nH]c2CN1` (stereo unspecified), the TGI in the test on DMS 114 small cell lung, in the test with DMS 273 small cell lung, in the test on HOP-18 NSCLC, in the test with KM20L2 colon, in the test with LXFL 529 NSCLC and with M19-MEL melanoma was above 100 µM in each case.

Take `C=C(CO)CC(O)c1ccccc1` (stereo unspecified): the TGI in the test on DMS 114 small cell lung, in the test on DMS 273 small cell lung, with KM20L2 colon, in the test on LXFL 529 NSCLC and in the test with M19-MEL melanoma was above 100 µM each time.

`O=C1OC(=O)C2C3CCC(O3)C12` (stereo unspecified): the TGI in the test on DMS 114 small cell lung, with DMS 273 small cell lung, in the test on HOP-18 NSCLC, with LXFL 529 NSCLC and with M19-MEL melanoma was above 100 µM in each case.

For `O=C=Nc1ccc(Cc2ccc(N=C=O)cc2)cc1` (tested in a mixture with another compound), in the test on MDA-N, the GI50 was above 25 µg/mL and the TGI was above 25 µg/mL.

`CC1=COC2=C(C)C(=O)C(=O)c3c(C)ccc1c32` gave a TGI in the test with MDA-N of 3.26 µM.

For `Cc1ccccc1NC(=O)C(=O)Cc1nc2ccccc2s1`, the TGI in the test with DMS 114 small cell lung, with DMS 273 small cell lung, in the test with HOP-18 NSCLC, with LXFL 529 NSCLC and in the test with M19-MEL melanoma was above 100 µM each time.

Take `Cc1cccc(NC(=O)CC2C(=O)Nc3ccccc3S2(=O)=O)c1C` (stereo unspecified): the TGI with DMS 114 small cell lung was 51.6 µM; with DMS 273 small cell lung, above 100 µM; in the test on HOP-18 NSCLC, 61.9 µM; in the test on KM20L2 colon, above 100 µM; in the test on LXFL 529 NSCLC, above 100 µM; in the test on M19-MEL melanoma, above 100 µM.

On to `Oc1cccc(C2SCc3nc4ccccc4n32)c1` (stereo unspecified), for which the TGI with DMS 114 small cell lung, with DMS 273 small cell lung, in the test on HOP-18 NSCLC and in the test on LXFL 529 NSCLC was above 100 µM each time.

Turning to `O=C1C=C(Br)C(=O)C(Br)=C1`, the TGI in the test on DMS 114 small cell lung is above 100 µM; in the test on DMS 273 small cell lung, above 100 µM; in the test with HOP-18 NSCLC it was above 100 µM; in the test on KM20L2 colon, above 100 µM; with LXFL 529 NSCLC it was above 100 µM; in the test on M19-MEL melanoma it was above 89.6 µM.

In turn, `COc1ccc(/C=N/NC(=O)O)cc1` yielded a TGI in the test with MDA-N above 100 µM.

Regarding `Cc1ccc(C(=O)/C=C/c2ccccc2Cl)cc1`, the TGI is 35.5 µM with DMS 114 small cell lung; 29.4 µM with DMS 273 small cell lung; 76.1 µM in the test on HOP-18 NSCLC; 30.9 µM in the test with KM20L2 colon; 28.7 µM with LXFL 529 NSCLC; 33.5 µM with M19-MEL melanoma.

For `CNC(=O)OCc1nc(S(C)=O)n(C)c1COC(=O)NC` (stereo unspecified), the TGI was above 56.2 µM in the test with DMS 114 small cell lung; above 100 µM in the test on DMS 273 small cell lung; above 100 µM with HOP-18 NSCLC; above 100 µM in the test on KM20L2 colon; above 51.8 µM in the test with LXFL 529 NSCLC; above 63.2 µM in the test on M19-MEL melanoma. Further, the TGI in the test with P388 leukemia, with P388/ADR leukemia and with SN12K1 renal was above 100 µM throughout.

For the compound `C=C(C)C1CC[C@]2(C(=O)O)CCC3(C)[C@H](CCC4[C@@]5(C)CC[C@H](OC6OC(CO)C(O)C6OC6OC(C)C(O)C(O)C6O)[C@@](C)(CO)C5CC[C@]43C)C12` (stereo partly specified), the TGI in the test on DMS 114 small cell lung, with DMS 273 small cell lung, in the test with KM20L2 colon, in the test with LXFL 529 NSCLC and in the test on M19-MEL melanoma was above 100 µM in each case.

On to `CC(C)OCN1COCN=C1NC#N`, for which the TGI in the test with DMS 114 small cell lung, with DMS 273 small cell lung, with HOP-18 NSCLC, in the test on KM20L2 colon, with LXFL 529 NSCLC and in the test with M19-MEL melanoma was above 100 µM each time.

For `O=C(O)/C(O)=C1/C=C(c2ccccc2)c2ccccc21`, the TGI in the test on DMS 114 small cell lung stood at 37.6 µM; in the test with DMS 273 small cell lung, 33.1 µM; in the test with HOP-18 NSCLC, 47.4 µM; in the test with KM20L2 colon it was 97.2 µM; in the test with LXFL 529 NSCLC it was 91.4 µM; with M19-MEL melanoma it was 60.1 µM.

Compound `N#Cc1c(NC(=O)CCC(=O)O)ccc2ccccc12` yielded a TGI in the test with MDA-N above 100 µM.

As for `N/C(=N\C(=S)N1CCCCC1)N1CCCCC1`, the TGI in the test with DMS 114 small cell lung, in the test with DMS 273 small cell lung, with HOP-18 NSCLC, with KM20L2 colon, in the test with LXFL 529 NSCLC and in the test with M19-MEL melanoma was above 100 µM throughout.

`Cc1ccc(NC(=O)SCCC(=O)O)cc1NC(=O)SCCC(=O)O`: the TGI with DMS 114 small cell lung is above 100 µM; in the test with DMS 273 small cell lung, above 10 µM; with KM20L2 colon it was above 100 µM; in the test on LXFL 529 NSCLC it was above 100 µM.

In the test with MDA-N, `CC(=O)N1c2ccccc2C23CCN4CC5=CCOC(O)C(C5CC42)C13` (stereo unspecified) returned a TGI above 100 µM.

For `O=C(C#Cc1c[nH]c(=O)[nH]c1=O)c1ccccc1`, the TGI turned out to be 35.4 µM in the test on DMS 114 small cell lung, 28.9 µM with DMS 273 small cell lung, 29.2 µM in the test with HOP-18 NSCLC and 27.1 µM with M19-MEL melanoma.

In the case of `CCCCCN(CCCCC)C(=O)[C@@H](CCC(=O)OCc1ccccc1)NC(=O)c1cc2ccccc2[nH]1`, the TGI in the test on DMS 114 small cell lung, with DMS 273 small cell lung, in the test on HOP-18 NSCLC, with KM20L2 colon and in the test on LXFL 529 NSCLC was above 100 µM each time.

In the test on MDA-N, `O=C1/C(=C\c2ccccc2)c2ccccc2N1Cc1ccccc1` displayed a TGI of 13.4 µM.

In turn, `NC(C(=O)O)C(N)C(=O)O` (stereo unspecified) returned a TGI in the test on MDA-N above 100 µM.
